Assay [1] deals with T1, TIP60-KAT5 (Homo sapiens, UniProt Q92993).
T1 construct: encoding amino acid residues 2 to 461 (Uniprot Q92993-2) of human KAT5 isoform; made in house; host or cells: E. coli BL21 DE3
Nature of the assay: Revised Acetyltransferase Biochemical Assay, KAT5. As to conditions: 10 nM KAT5, 1 μM AcCoA, 100 nM histone H4, 90 min.

For assay [2], the target named is T2, MOZ-KAT6A (Homo sapiens, UniProt Q92794, A567V).
T2 construct: encoding amino acid residues 507 to 778 (Uniprot Q92794-1) of human KAT6A; made in house; host or cells: E. coli BL21 DE3
Nature of the assay: Revised Acetyltransferase Biochemical Assay, KAT6A. As to conditions: Table 8 (MOZ-KAT6A), 1 μM Acetyl coenzyme A.

Assay [3] addresses T1, TIP60-KAT5. Nature of the assay: Acetyltransferase biochemical assay (AlphaScreen), KAT5. As to conditions: Table 1 (TIP60-KAT5); 0.4 μM Acetyl coenzyme A, histone H4, 10 nM enzyme.
Assay [4] concerns the target T2, MOZ-KAT6A. Nature of the assay: Acetyltransferase biochemical assay (AlphaScreen), KAT6A. The note with it: Table 2 (MOZ-KAT6A); 10 μM Acetyl coenzyme A, histone H3.1, 5 nM enzyme. (In general: In Alpha technology, singlet oxygen from a donor bead excites a nearby acceptor bead.)
The target of assay [5] is T3, HBO-KAT7 (Homo sapiens, UniProt O95251).
T3 construct: encoding amino acid residues 325 to 611 (Uniprot 095251-1) of human KAT7; made in house; host or cells: E. coli BL21 DE3 RIL
Nature of the assay: Acetyltransferase biochemical assay (AlphaScreen), KAT7. As to conditions: Table 3 (HBO-KAT7); 0.4 μM Acetyl coenzyme A, histone H3.1, 40 nM enzyme.

For assay [6], the target named is T3, HBO-KAT7. The assay is described as follows: Revised Acetyltransferase Biochemical Assay, KAT7. As to conditions: Table 9 (HBO-KAT7), 1 μM Acetyl coenzyme A.

Among the data in US20210380548A1, “Fused [1,2,4]Thiadiazine Derivatives Which Act as KAT Inhibitors of the MYST Family” (CTxT Pty Limited, priority 2017, published 2021) are IC50 values, retold here.

Where only a bound is given, the exact number is not on record here.

Usually IC50 stands for the concentration that gives 50% inhibition. Read a high IC50 as weaker potency in that assay.

T3 sequence (O95251 with tags, fused parts or gaps): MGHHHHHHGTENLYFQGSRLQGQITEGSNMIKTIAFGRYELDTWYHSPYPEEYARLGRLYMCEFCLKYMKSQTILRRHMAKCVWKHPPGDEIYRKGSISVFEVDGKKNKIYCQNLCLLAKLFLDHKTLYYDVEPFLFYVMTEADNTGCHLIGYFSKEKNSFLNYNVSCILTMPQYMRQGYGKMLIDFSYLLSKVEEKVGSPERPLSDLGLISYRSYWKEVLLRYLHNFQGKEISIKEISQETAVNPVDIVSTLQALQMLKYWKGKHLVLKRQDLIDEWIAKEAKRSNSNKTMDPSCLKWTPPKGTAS
T2 sequence (Q92794 507-778 A567V limits assumed): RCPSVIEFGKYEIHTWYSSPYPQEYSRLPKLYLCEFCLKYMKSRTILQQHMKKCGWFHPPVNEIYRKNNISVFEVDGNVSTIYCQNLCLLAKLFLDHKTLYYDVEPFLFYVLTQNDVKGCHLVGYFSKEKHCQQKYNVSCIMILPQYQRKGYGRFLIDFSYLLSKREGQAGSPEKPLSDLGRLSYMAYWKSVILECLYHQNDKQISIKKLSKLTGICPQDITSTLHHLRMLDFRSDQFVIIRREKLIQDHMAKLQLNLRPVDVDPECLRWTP
T1 sequence (Q92993 2-461 isoform Q92993-2): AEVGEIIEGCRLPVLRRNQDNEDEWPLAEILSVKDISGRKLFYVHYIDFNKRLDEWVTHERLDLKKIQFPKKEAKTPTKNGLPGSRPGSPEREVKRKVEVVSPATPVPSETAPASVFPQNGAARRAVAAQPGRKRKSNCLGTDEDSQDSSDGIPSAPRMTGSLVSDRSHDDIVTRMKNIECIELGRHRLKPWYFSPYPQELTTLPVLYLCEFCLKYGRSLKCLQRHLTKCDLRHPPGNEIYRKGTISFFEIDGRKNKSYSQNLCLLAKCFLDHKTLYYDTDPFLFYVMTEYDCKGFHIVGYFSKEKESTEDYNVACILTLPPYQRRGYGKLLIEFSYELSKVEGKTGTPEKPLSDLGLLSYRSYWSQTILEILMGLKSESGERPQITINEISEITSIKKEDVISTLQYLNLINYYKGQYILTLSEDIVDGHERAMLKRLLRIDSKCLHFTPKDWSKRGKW

Take `O=C(NCC(c1ccccc1)c1ncco1)C1=Nc2ccc(F)cc2S(=O)(=O)N1` (single isomer, unassigned) [Example 145]: the IC50 is 7.46 µM on TIP60-KAT5 [1], 0.649 µM against MOZ-KAT6A [2], 18.9 µM at TIP60-KAT5 [3] and 3.73 µM against MOZ-KAT6A [4].
For the compound `CNC(=O)Cn1cc(-c2ccc3c(c2)S(=O)(=O)NC(C(=O)NCC(c2ccccc2)c2ncco2)=N3)cn1` (stereo not drawn) [Example 9, 7-(1-(2-(Methylamino)-2-oxoethyl)-1H-pyrazol-4-yl)-N-(2-(oxazol-2-yl)-2-phenylethyl)-2H-benzo[e][1,2,4]thiadiazine-3-carboxamide 1,1-dioxide], the IC50 was determined as 12.4 µM against TIP60-KAT5 [3], 0.0421 µM against MOZ-KAT6A [4] and 20.1 µM against HBO-KAT7 [5].
Taken in the same sequence, the figures for `Nc1ccc2c(c1)S(=O)(=O)NC(C(=O)NCC(c1ccccc1)c1ncco1)=N2` (stereo not drawn) [Example 11, 7-Amino-N-(2-(oxazol-2-yl)-2-phenylethyl)-2H-benzo[e][1,2,4]thiadiazine-3-carboxamide 1,1-dioxide] were 11.8 µM, 1.81 µM and 2.53 µM.
In the case of `O=C(NCC(c1ccccc1)c1ccccc1)C1=Nc2ccc(Br)cc2S(=O)(=O)N1` [Example 15, 7-Bromo-N-(2,2-diphenylethyl)-2H-benzo[e][1,2,4]thiadiazine-3-carboxamide 1,1-dioxide], the IC50 against TIP60-KAT5 [1] is 5.55 µM; at HBO-KAT7 [6], 0.874 µM; on MOZ-KAT6A [2], 0.682 µM; against TIP60-KAT5 [3] it was 1.4 µM; against MOZ-KAT6A [4], 0.211 µM.
`COC(=O)c1ccc2c(c1)S(=O)(=O)NC(C(=O)NCC(c1ccccc1)c1ncco1)=N2` (stereo not drawn) [Example 23, Methyl 3-((2-(oxazol-2-yl)-2-phenylethyl)carbamoyl)-2H-benzo[e][1,2,4]thiadiazine-7-carboxylate 1,1-dioxide]: the IC50 turned out to be 1.73 µM at TIP60-KAT5 [1]; 2.88 µM on HBO-KAT7 [6]; 0.12 µM against MOZ-KAT6A [2]; 3.73 µM against TIP60-KAT5 [3]; 0.056 µM on MOZ-KAT6A [4].
`O=C(NCCc1ccccc1Br)C1=Nc2ccccc2S(=O)(=O)N1` [Example 28, N-(2-Bromophenethyl)-2H-benzo[e][1,2,4]thiadiazine-3-carboxamide 1,1-dioxide]: the concentration for half-maximal inhibition (IC50) on TIP60-KAT5 [3] came to 63.5 µM; against MOZ-KAT6A [4], 4.42 µM; against HBO-KAT7 [5], 15.7 µM.
On to `O=C(NCCc1ccccc1O)C1=Nc2ccccc2S(=O)(=O)N1` [Example 29, N-(2-Hydroxyphenethyl)-2H-benzo[e][1,2,4]thiadiazine-3-carboxamide 1,1-dioxide], for which the concentration for half-maximal inhibition (IC50) at TIP60-KAT5 [3] is > 125 µM; against MOZ-KAT6A [4] it was 28.6 µM; against HBO-KAT7 [5] it was 84.4 µM.
`O=C(NCCc1ccccc1I)C1=Nc2ccccc2S(=O)(=O)N1` [Example 31, N-(2-Iodophenethyl)-2H-benzo[e][1,2,4]thiadiazine-3-carboxamide 1,1-dioxide]: the IC50 is 15.1 µM against TIP60-KAT5 [3], 8.23 µM on MOZ-KAT6A [4] and 5.84 µM at HBO-KAT7 [5].
`O=C(NCCc1ccccc1-c1cccnc1)C1=Nc2ccccc2S(=O)(=O)N1` [Example 34, N-(2-(Pyridin-3-yl)phenethyl)-2H-benzo[e][1,2,4]thiadiazine-3-carboxamide 1,1-dioxide]: the IC50 against TIP60-KAT5 [1] is 70.3 µM; against HBO-KAT7 [6], 11.5 µM; on MOZ-KAT6A [2] it was 5.78 µM; on TIP60-KAT5 [3], > 125 µM; against MOZ-KAT6A [4], 51.6 µM; at HBO-KAT7 [5], 60.3 µM.
Turning to `N#Cc1ccccc1CCNC(=O)C1=Nc2ccccc2S(=O)(=O)N1` [Example 35, N-(2-Cyanophenethyl)-2H-benzo[e][1,2,4]thiadiazine-3-carboxamide 1,1-dioxide], the 50% inhibitory concentration (IC50) against TIP60-KAT5 [3] was > 125 µM; against MOZ-KAT6A [4], 59.9 µM; against HBO-KAT7 [5] it was 31.6 µM.
For the compound `CCOC(=O)NC(CNC(=O)C1=Nc2ccccc2S(=O)(=O)N1)c1ccccc1` (stereo not drawn) [Example 49, Ethyl (2-(1,1-dioxido-2H-benzo[e][1,2,4]thiadiazine-3-carboxamido)-1-phenylethyl)carbamate], the IC50 on TIP60-KAT5 [1] was > 125 µM; against HBO-KAT7 [6], 3.13 µM; against MOZ-KAT6A [2] it was 1.68 µM; at TIP60-KAT5 [3], > 125 µM; against MOZ-KAT6A [4], 7.67 µM.
As to `O=C(NCC(c1ccccc1)n1cccc1)C1=Nc2ccccc2S(=O)(=O)N1` (stereo not drawn) [Example 54, N-(2-phenyl-2-(1H-pyrrol-1-yl)ethyl)-2H-benzo[e][1,2,4]thiadiazine-3-carboxamide 1,1-dioxide], the IC50 is 57.9 µM on TIP60-KAT5 [3], 8.87 µM on MOZ-KAT6A [4] and 4.01 µM on HBO-KAT7 [5].
Turning to `O=C(NCC(c1ccccc1F)n1cccc1)C1=Nc2ccccc2S(=O)(=O)N1` (stereo not drawn) [Example 55, N-(2-(2-fluorophenyl)-2-(1H-pyrrol-1-yl)ethyl)-2H-benzo[e][1,2,4]thiadiazine-3-carboxamide 1,1-dioxide], the IC50 came out at 36.5 µM against TIP60-KAT5 [3], 5.66 µM on MOZ-KAT6A [4] and 4.51 µM against HBO-KAT7 [5].
Consider `O=C(NCC(Oc1ccccc1)c1ccccc1)C1=Nc2ccccc2S(=O)(=O)N1` (stereo not drawn) [Example 77], for which the half-inhibitory concentration (IC50) on TIP60-KAT5 [3] was found to be 87 µM; on MOZ-KAT6A [4], 35.5 µM.
As to `O=C(NCCc1ccccn1)C1=Nc2ccc(Br)cc2S(=O)(=O)N1` [Example 79], the figures for the IC50 on TIP60-KAT5 [3], against MOZ-KAT6A [4] and against HBO-KAT7 [5] were 87.8 µM, 35.4 µM and 29.5 µM, respectively.
With `O=C(NCCc1cccnc1)C1=Nc2ccc(Br)cc2S(=O)(=O)N1` [Example 80], the results for the IC50 against TIP60-KAT5 [3], on MOZ-KAT6A [4] and on HBO-KAT7 [5] were > 125 µM, 58.8 µM and 104 µM, respectively.
For `O=C(NCCc1ccccc1F)C1=Nc2ccc(Br)cc2S(=O)(=O)N1` [Example 81], the IC50 against TIP60-KAT5 [1] came to 6.65 µM; at HBO-KAT7 [6] it was 4.6 µM; at MOZ-KAT6A [2], 0.552 µM; against TIP60-KAT5 [3], 4.9 µM; at MOZ-KAT6A [4] it was 1.61 µM.
Turning to `N#Cc1ccccc1CCNC(=O)C1=Nc2ccc(Br)cc2S(=O)(=O)N1` [Example 83], the IC50 amounted to 7.38 µM on TIP60-KAT5 [3] and 2.61 µM against MOZ-KAT6A [4].
Taken in the same sequence, the figures for `O=C(NCC(c1ccccc1)c1cc2ccccc2[nH]1)C1=Nc2ccc(Br)cc2S(=O)(=O)N1` (stereo not drawn) [Example 85] were 5.97 µM and 8.1 µM.
In the case of `O=C(NCC(c1ccccc1)c1ncco1)C1=Nc2cnccc2S(=O)(=O)N1` (stereo not drawn) [Example 98], the IC50 is > 125 µM against TIP60-KAT5 [3], 36.1 µM on MOZ-KAT6A [4] and 68.6 µM at HBO-KAT7 [5].
Taken in the same sequence, the figures for `O=C(NCC(c1ccccc1)c1ncco1)C1=Nc2ncccc2S(=O)(=O)N1` (stereo not drawn) [Example 99] were > 125 µM, 15.8 µM and 9.16 µM.
`Nc1ccc(CCNC(=O)C2=Nc3ccc(I)cc3S(=O)(=O)N2)cc1` [Example 100]: the IC50 on TIP60-KAT5 [3] came out at 40.5 µM; against MOZ-KAT6A [4], 41.7 µM; against HBO-KAT7 [5], 112 µM.
On to `O=C(NCCc1cccc(O)c1)C1=Nc2ccc(I)cc2S(=O)(=O)N1` [Example 102], for which the half-inhibitory concentration (IC50) was 27.1 µM against TIP60-KAT5 [3], 10.6 µM at MOZ-KAT6A [4] and 60.2 µM at HBO-KAT7 [5].
Turning to `O=C(NCCc1ccccn1)C1=Nc2ccc(I)cc2S(=O)(=O)N1` [Example 107], the half-maximal inhibitory concentration (IC50) was determined as 20.8 µM at TIP60-KAT5 [3], 12 µM against MOZ-KAT6A [4] and 23.3 µM at HBO-KAT7 [5].
In the same order, the values of `O=C(NCCc1cccnc1)C1=Nc2ccc(I)cc2S(=O)(=O)N1` [Example 108] are 77.7 µM, 11.6 µM and 50.1 µM.
For the compound `COC(=O)C(CNC(=O)C1=Nc2ccccc2S(=O)(=O)N1)c1ccccc1` (stereo not drawn) [Example 112, Methyl 3-(1,1-dioxido-2H-benzo[e][1,2,4]thiadiazine-3-carboxamido)-2-phenylpropanoate], the 50% inhibitory concentration (IC50) against TIP60-KAT5 [3] is 18.5 µM; against MOZ-KAT6A [4] it was 4.58 µM; at HBO-KAT7 [5] it was 4.11 µM.
As to `CCNC(=O)C(CNC(=O)C1=Nc2ccccc2S(=O)(=O)N1)c1ccccc1` (stereo not drawn) [Example 131], the half-maximal inhibitory concentration (IC50) on TIP60-KAT5 [3] was > 125 µM; at MOZ-KAT6A [4] it was 62.3 µM.
Regarding `O=C(NCC(C(=O)N1CCCCC1)c1ccccc1)C1=Nc2ccccc2S(=O)(=O)N1` (stereo not drawn) [Example 133], the IC50 against TIP60-KAT5 [3] and at MOZ-KAT6A [4] was > 125 µM in each case.
With `O=C(NCC(c1ccccc1)c1ncco1)C1=Nc2ccc(-c3cscn3)cc2S(=O)(=O)N1` (stereo not drawn) [Example 135], the IC50 against TIP60-KAT5 [1] was determined as 0.646 µM; against HBO-KAT7 [6], 0.419 µM; on MOZ-KAT6A [2] it was 0.047 µM; at TIP60-KAT5 [3], 3.13 µM; against MOZ-KAT6A [4], 0.168 µM; at HBO-KAT7 [5] it was 2.53 µM.
Turning to `O=C(NCC(C(=O)O)c1ccccc1)C1=Nc2ccccc2S(=O)(=O)N1` (stereo not drawn) [Example 154, 3-(1,1-Dioxido-2H-benzo[e][1,2,4]thiadiazine-3-carboxamido)-2-phenylpropanoic Acid], the IC50 at TIP60-KAT5 [3] and at MOZ-KAT6A [4] was > 125 µM in each case.
For `CC(CNC(=O)C1=Nc2ccccc2S(=O)(=O)N1)(c1ccccc1)c1ccccc1` [Example 206], the IC50 against TIP60-KAT5 [1] came out at 13.7 µM; against HBO-KAT7 [6], 1.21 µM; against MOZ-KAT6A [2], 1.39 µM; at TIP60-KAT5 [3], 36.8 µM; at MOZ-KAT6A [4] it was 9.64 µM; at HBO-KAT7 [5], 7.17 µM.
